Measured values as given in patent US20240009190A1, “COMBINATION CANCER THERAPY USING CHK INHIBITOR” (SHANGHAI HUAYU BIOTECHNOLOGY CO., LTD., priority 2020, published 2024).

Tests used:
CT-26 WT cells [1] = assay: CT-26 WT subcutaneous tumor model, Compound 6 with anti-m-PD-1 antibody (Example 1); format: in vivo, BALB/c female mice; conditions: Day 27; Compound 6 35 mg/kg tail vein once per day; anti-m-PD-1 10 mg/kg IP once every five days, four times
Protocol: CT-26 WT cells were maintained at 37° C. in 5% CO2 in RPMI 1640 medium (10-040-CV, Corning cellgro) supplemented with 10% FBS (10270-106, GIBCO) and used before the 10th subculture.
At Day 0, 45 BALB/c female mice, 4-5 weeks old, were subcutaneously injected with about 200.0 μL of the CT-26 WT cell medium containing about 5×10^5 cells, respectively.
At Day 5, 32 tumor-bearing mice were randomly assigned to four groups according to their body weights, 8 mice per group. The remaining mice were subject to euthanasia. […]
(§1) Mice were observed every day for their physical conditions and activities, and mice body weight and tumor volume were measured every Tuesday, Thursday and Sunday. The tumor volume (V) was calculated as (length×width^2)/2.
(§2) At Day 27, mice were subject to euthanasia, from which tumors were collected, weighed and photographed. Mice body weights, tumor sizes and tumor weights were analyzed using the t-test in SPSS, and group differences were deemed statistically significant when the p-value was 0.05 or less.
Tumor growth inhibition (TGI) was calculated by the following two formulae. […]
Further, Zheng-Jun Jin's Q value was calculated using the formula Q=EA+B/(EA+EB−EA×EB) to assess the combined effect of the anti-PD-1 antibody and Compound 6, wherein EA+B, EA, and EB referred to the TGIs of the combination therapy, anti-PD-1 administration and Compound 6 administration, respectively. […]

MC38 cells [2] = assay: MC38 tumor model in transgenic mice, Compound 6, anti-PD-1 antibody and gemcitabine (Example 5); format: in vivo, C57BL/6-Pdcd1^em(hPDCD1) Cd274^em1(hPD-L1)/Smoc mice; conditions: Day 23; Compound 6 15 mg/kg IP QD × 14; GEM 20 mg/kg IV QW × 2; anti-PD-1 10 mg/kg IP Q5D × 3
Protocol: MC38 cells were maintained at 37° C. in 5% CO2 in RPMI 1640 medium (10-040-CV, Corning cellgro) supplemented with 10% FBS (10270-106, GIBCO) and used before the 10th subculture.
Female C57BL/6-Pdcd1^em(hPDCD1) Cd274^em1(hPD-L1)/Smoc mice (Shanghai Model Organisms), 20-25 g, were subcutaneously injected with about 5×10^5 MC38 cells, respectively.
When tumors grew to 50-70 mm^3, these mice were randomly assigned to 8 groups, 8 mice per group, this day was at Day 9. From Day 9, the animals were administered with gemcitabine (GEM) in saline at 20 mg/mL, an anti-PD-1 antibody (Toripalimab, Shanghai Junshi Biosciences Co., Ltd. China) in saline at 40 mg/mL, Compound 6 in saline at 8 mg/mL, Compound 6+gemcitabine, gemcitabine+anti-PD-1, Compound 6+anti-PD-1, Compound 6+gemcitabine+anti-PD-1, and the control vehicle (5% GS), respectively, according to the dosing regimen shown in Table 11 below.
Mice were observed every day for their physical conditions and activities, and mice body weight and tumor volume were measured every other day. The tumor volume (V) was calculated as (length×width^2)/2.
Mice body weights, and tumor sizes were analyzed using the t-test in SPSS, and group differences were deemed statistically significant when the p-value was 0.05 or less.
Tumor growth inhibition (TGI) was calculated by the following formula. Tumor growth inhibition=(average tumor size in vehicle group-average tumor size in administration group)/average tumor size in vehicle group×100%
Zheng-Jun Jin's Q value was calculated as described above.

CT-26 WT cells [3] = assay: CT-26 WT subcutaneous tumor model, CHK inhibitors at lower dose with anti-m-PD-1 antibody (Example 2); format: in vivo, BALB/c female mice; conditions: for Average tumor size: compounds 15 mg/kg tail vein once per day, anti-m-PD-1 10 mg/kg IP once every five days
Protocol: The anti-tumor effect of Compound 6 at a lower dose in combination with an anti-PD-1 antibody was studied in this Example. Further, three compounds obtained by structurally modifying Compound 6, i.e., Compound 6-1, Compound 6-2 and Compound 6-3, were tested alone or in combination with an anti-PD-1 antibody for their anti-tumor effects.
At Day 0, 105 BALB/c female mice, 4-5 weeks old, were subcutaneously injected with about 200.0 μL of the CT-26 WT cell medium containing about 5×10^5 cells, respectively.
At Day 5, 80 tumor-bearing mice were randomly assigned to ten groups according to their body weights, 8 mice per group. The remaining mice were subject to euthanasia.
The ten groups of animals were administered with an anti-m-PD-1 antibody (BE0146, BioXcell) in PBS (21-040-CVR, BioXcell) at 1.0 mg/mL, Compound 6 in saline at 1.5 mg/mL, Compound 6-1 in saline at 1.5 mg/mL, Compound 6-2 in saline at 1.5 mg/mL, Compound 6-3 in saline at 1.5 mg/mL, the anti-m-PD-1 antibody+Compound 6, the anti-m-PD-1 antibody+Compound 6-1, the anti-m-PD-1 antibody+Compound 6-2, the anti-m-PD-1 antibody+Compound 6-3, and the control vehicle (saline), respectively, at doses shown in Table 3 below.
as §1
as §2, with “23,” for “27,”, “less. Tumor weight based tumor growth inhibition (TGI) and Zheng-Jun Jin's Q value were calculated.” for “less.”

[4] = Mice body weight and survival in CT-26 WT tumor model (Example 1); format: in vivo, BALB/c female mice; conditions: Day 27; Compound 6 35 mg/kg, anti-m-PD-1 10 mg/kg
Protocol: as §1, §2

[5] = Mice body weight in CT-26 WT tumor model (Example 2); format: in vivo, BALB/c female mice; conditions: for Average body weight: compounds 15 mg/kg tail vein once per day, anti-m-PD-1 10 mg/kg IP once every five days
Protocol: as §1
as §2, with “23,” for “27,”, “less. Tumor weight based tumor growth inhibition (TGI) and Zheng-Jun Jin's Q value were calculated.” for “less.”

MC38 cells [6] = assay: MC38 tumor model in mPD-1-/- mPD-L1-/- hPD-1+/+ hPD-L1+/+ transgenic mice (Example 3); format: in vivo, C57BL/6-Pdcd1^em1(hPDCD1) Cd274^em1(hPD-L1)/Smoc mice
Protocol: MC38 cells were maintained at 37° C. in 5% CO2 in RPMI 1640 medium (10-040-CV, Corning cellgro) supplemented with 10% FBS (10270-106, GIBCO, Thermo Fisher Scientific), 100 U/ml penicillin and 100 U/ml streptomycin in 10-cm Petri dishes.
Female C57BL/6-Pdcd1^em1(hPDCD1) Cd274^em1(hPD-L1)/Smoc mice, 20-25 g (Shanghai Model Organisms), were subcutaneously injected with about 3×10^5 MC38 cells, respectively.
When tumors grew to 50-70 mm^3, these mice were randomly assigned to four groups, 8 mice per group, this day was designated as Day 0. From Day 0, the animals were administered with an anti-PD-1 antibody (Toripalimab, Shanghai Junshi Biosciences Co., Ltd. China) in saline at 40.0 mg/mL, an hIgG4 (Novoprotein, NovoPro Bioscience Inc.) in saline at 3.3 mg/mL, Compound 6 in saline at 8 mg/mL in combination with the anti-PD-1 antibody, and Compound 6 in combination with hIgG4, respectively, according to the dosing regimen shown in Table 8 above.
Mice were observed every day for their physical conditions and activities, and mice body weight and tumor volume were measured twice a week. The tumor volume (V) was calculated as (length×width^2)/2.
Mice in Group 1 and Group 2 were subjected to euthanasia at Day 14, and those from Group 3 and Group 4 on Day 21, from which tumors were collected and photographed. Mice body weights and tumor sizes were analyzed using the t-test in SPSS, and group differences were deemed statistically significant when the p-value was 0.05 or less. TGI and Zheng-Jun Jin's Q value were calculated.

MC38 cells [7] = assay: MC38 tumor model in transgenic mice, lower dose of anti-PD-1 antibody (Example 4); format: in vivo, C57BL/6-Pdcd1^em1(hPDCD1) Cd274^em1(hPD-L1)/Smoc mice; conditions: Compound 6 8 mg/kg IP QD × 14; anti-PD-1 or hIgG4 2.5 mg/kg IP BIW × 3
Protocol: The test of Example 3 was repeated in the same transgenic mouse model using a lower dose of anti-PD-1 antibody, i.e., 2.5 mg/kg anti-PD-1, with some other minor modifications.
In particular, female C57BL/6-Pdcd1^em1(hPDCD1) Cd274^em1(hPD-L1)/Smoc mice (Shanghai Model Organisms), 5-7 weeks old, were subcutaneously injected with about 3×10^5 MC38 cells, respectively.
When tumors grew to 50-100 mm^3, these mice were randomly assigned to four groups, 8 mice per group, this day was designated as Day 0. From Day 0, the animals were administered with an anti-PD-1 antibody (Toripalimab, Shanghai Junshi Biosciences Co., Ltd. China) in 5% GS (5% glucose solution) at 40 mg/mL, an hIgG4 (Novoprotein, NovoPro Bioscience Inc.) in 5% GS at 3.3 mg/mL, Compound 6 in 5% GS at 8 mg/mL in combination with the anti-PD-1 antibody, and Compound 6 in combination with hIgG4, respectively, according to the dosing regimen shown in Table 10 below.

[8] = patients receiving various doses; pooled analysis of 14 phase I-III studies; cited from earlier work
[9] = Day 23, compounds 15 mg/kg, anti-m-PD-1 10 mg/kg

NC(=O)c1nnc(N[C@H]2CCCNC2)c2cc(-c3cccc(F)c3)sc12 [Compound 6, 2-(3-fluorophenyl)-4-(3-piperidineamino)-thieno[2,3-d]pyridazine-7-carboxylic acid amide]
TGI - tumor size (CT-26 WT cells [1]): 72.74% | TGI - tumor weight (CT-26 WT cells [1]): 77.53% | TGI based on tumor sizes (MC38 cells [2]): 52.53% | Average tumor size (CT-26 WT cells [3]; Day 9): 163.24 mm^3 | Average tumor size (CT-26 WT cells [3]; Day 10): 220.45 mm^3 | Average tumor size (CT-26 WT cells [3]; Day 12): 367.43 mm^3 | Average tumor size (CT-26 WT cells [3]; Day 14): 494.61 mm^3 | Average tumor size (CT-26 WT cells [3]; Day 16): 666.40 mm^3 | Average tumor size (CT-26 WT cells [3]; Day 18): 770.93 mm^3 | Average tumor size (CT-26 WT cells [3]; Day 20): 955.40 mm^3 | Average tumor size (CT-26 WT cells [3]; Day 22): 1094.31 mm^3 | Average tumor size (CT-26 WT cells [3]; Day 23): 1071.65 mm^3 | Tumor weight based TGI (CT-26 WT cells [3]; [9]): 52.30% | Tumor weight, Average (CT-26 WT cells [3]; Day 23, group average of 8 mice): 1.35 g | Tumor weight, Mouse no. 1 (CT-26 WT cells [3]; Day 23, individual mouse): 0.95 g | Tumor weight, Mouse no. 2 (CT-26 WT cells [3]; Day 23, individual mouse): 0.28 g | Tumor weight, Mouse no. 3 (CT-26 WT cells [3]; Day 23, individual mouse): 0.59 g | Tumor weight, Mouse no. 4 (CT-26 WT cells [3]; Day 23, individual mouse): 2.43 g | Tumor weight, Mouse no. 5 (CT-26 WT cells [3]; Day 23, individual mouse): 2.97 g | Tumor weight, Mouse no. 6 (CT-26 WT cells [3]; Day 23, individual mouse): 0.97 g | Tumor weight, Mouse no. 7 (CT-26 WT cells [3]; Day 23, individual mouse): 2.04 g | Tumor weight, Mouse no. 8 (CT-26 WT cells [3]; Day 23, individual mouse): 0.57 g | average mice weight, tumor weight deducted [4]: 18.41 g | Average body weight ([5]; Day 9): 16.39 g | Average body weight ([5]; Day 10): 16.85 g | Average body weight ([5]; Day 12): 16.87 g | Average body weight ([5]; Day 14): 17.03 g | Average body weight ([5]; Day 16): 17.88 g | Average body weight ([5]; Day 18): 17.89 g | Average body weight ([5]; Day 20): 18.25 g | Average body weight ([5]; Day 22): 18.37 g | Average body weight ([5]; Day 23): 18.98 g | average mice weight, tumor weight deducted [5, 9]: 17.63 g

Toripalimab [anti-PD-1]
TGI based on tumor sizes (MC38 cells [2]): 17.05% | Average tumor size (MC38 cells [6]; Day 0 (day of grouping, start of dosing)): 59.1 ± 0.4 mm^3 | Average tumor size (MC38 cells [6]; Day 14, Compound 6 8 mg/kg IP QD Day 0-13, anti-PD-1 or hIgG4 3 mg/kg IP Q2D): 792.1 ± 207.1 mm^3 | TGI (%) on D14 (MC38 cells [6]; Day 14, Compound 6 8 mg/kg IP QD, anti-PD-1 or hIgG4 3 mg/kg IP Q2D): 58% | TGI (MC38 cells [7]): 46.95%

ipilimumab
patients who experienced immune-related adverse effects [8]: 64%
